Assay results as given in the NIST ThermoML archive (doi:10.1016/j.jct.2015.04.030).

Assay: excess molar enthalpy (molar enthalpy of mixing); xn = mol fraction of the nth substance listed
Conditions: 100 kPa, Liquid, Calvet calorimetry

NCCCNCCCN [bis(3-aminopropyl)amine] + O
excess molar enthalpy [kcal/mol]
Conditions | 303.15 K | 323.15 K
x1 = 0.0507 | – | -0.581
x1 = 0.0508 | -0.621 | –
x1 = 0.1064 | – | -1.05
x1 = 0.1065 | -1.11 | –
x1 = 0.1991 | – | -1.43
x1 = 0.1993 | -1.52 | –
x1 = 0.3005 | -1.57 | -1.48
x1 = 0.4049 | -1.47 | –
x1 = 0.4057 | – | -1.34
x1 = 0.4998 | -1.33 | –
x1 = 0.5003 | – | -1.21
x1 = 0.602 | -1.09 | –
x1 = 0.6022 | – | -0.916
x1 = 0.6842 | -0.83 | -0.744
x1 = 0.8014 | – | -0.463
x1 = 0.8015 | -0.534 | –

CN(C)CCN(C)CCN(C)C [N,N,N',N'',N''-pentamethyldiethylenetriamine] + O
excess molar enthalpy [kcal/mol]
Conditions | 303.15 K | 323.15 K
x1 = 0.0486 | -0.641 | –
x1 = 0.0506 | – | -0.561
x1 = 0.099 | -0.948 | –
x1 = 0.1024 | – | -0.825
x1 = 0.15 | -1.03 | -0.908
x1 = 0.2 | – | -0.951
x1 = 0.2072 | -1.08 | –
x1 = 0.2492 | -1.05 | –
x1 = 0.25 | – | -0.927
x1 = 0.3 | -1 | –
x1 = 0.3062 | – | -0.869
x1 = 0.4001 | – | -0.77
x1 = 0.4063 | -0.841 | –
x1 = 0.4895 | -0.727 | –
x1 = 0.5005 | – | -0.618
x1 = 0.6001 | – | -0.478
x1 = 0.6117 | -0.538 | –

NCCOCCO [2-(2-aminoethoxy)ethanol] + O
Conditions | excess molar enthalpy [kcal/mol]
303.15 K, x1 = 0.0626 | -0.24
303.15 K, x1 = 0.1041 | -0.355
303.15 K, x1 = 0.1949 | -0.509
303.15 K, x1 = 0.3027 | -0.551
303.15 K, x1 = 0.3448 | -0.565
303.15 K, x1 = 0.398 | -0.556
303.15 K, x1 = 0.5045 | -0.483
303.15 K, x1 = 0.604 | -0.414
303.15 K, x1 = 0.7062 | -0.333
303.15 K, x1 = 0.8105 | -0.223
303.15 K, x1 = 0.9035 | -0.11
323.15 K, x1 = 0.0628 | -0.222
323.15 K, x1 = 0.1062 | -0.335
323.15 K, x1 = 0.1982 | -0.468
323.15 K, x1 = 0.3017 | -0.527
323.15 K, x1 = 0.342 | -0.539
323.15 K, x1 = 0.4004 | -0.527
323.15 K, x1 = 0.5053 | -0.483
323.15 K, x1 = 0.5967 | -0.417
323.15 K, x1 = 0.7043 | -0.329
323.15 K, x1 = 0.8037 | -0.224
323.15 K, x1 = 0.9032 | -0.107

NCCNCCNCCN [1,2-ethanediamine, N,N'-bis(2-aminoethyl)-] + O
Conditions | excess molar enthalpy [kcal/mol]
303.15 K, x1 = 0.0497 | -0.671
303.15 K, x1 = 0.0697 | -0.889
303.15 K, x1 = 0.1129 | -1.25
303.15 K, x1 = 0.2006 | -1.57
303.15 K, x1 = 0.2478 | -1.62
303.15 K, x1 = 0.3031 | -1.6
303.15 K, x1 = 0.3527 | -1.55
303.15 K, x1 = 0.4038 | -1.4
303.15 K, x1 = 0.5069 | -1.15
303.15 K, x1 = 0.589 | -0.974
303.15 K, x1 = 0.701 | -0.71
323.15 K, x1 = 0.0496 | -0.633
323.15 K, x1 = 0.1103 | -1.2
323.15 K, x1 = 0.1998 | -1.44
323.15 K, x1 = 0.2469 | -1.5
323.15 K, x1 = 0.3041 | -1.49
323.15 K, x1 = 0.4041 | -1.32
323.15 K, x1 = 0.4995 | -1.11
323.15 K, x1 = 0.602 | -0.91
323.15 K, x1 = 0.7006 | -0.636

CN(C)CCN(C)CCO [2-{[2-(dimethylamino)ethyl](methyl)amino}ethanol] + O
303.15 K
Conditions | excess molar enthalpy [kcal/mol]
x1 = 0.1012 | -0.696
x1 = 0.2028 | -0.863
x1 = 0.25 | -0.894
x1 = 0.3015 | -0.862
x1 = 0.4004 | -0.836
x1 = 0.4989 | -0.716

NCCNCCN [di(2-aminoethyl)amine] + O
Conditions | excess molar enthalpy [kcal/mol]
303.15 K, x1 = 0.0509 | -0.542
303.15 K, x1 = 0.1001 | -0.981
303.15 K, x1 = 0.1544 | -1.33
303.15 K, x1 = 0.1962 | -1.48
303.15 K, x1 = 0.2416 | -1.56
303.15 K, x1 = 0.3018 | -1.59
303.15 K, x1 = 0.4026 | -1.52
303.15 K, x1 = 0.501 | -1.29
303.15 K, x1 = 0.6025 | -1.05
303.15 K, x1 = 0.702 | -0.811
303.15 K, x1 = 0.7984 | -0.57
323.15 K, x1 = 0.0503 | -0.504
323.15 K, x1 = 0.0989 | -0.911
323.15 K, x1 = 0.2028 | -1.41
323.15 K, x1 = 0.3003 | -1.51
323.15 K, x1 = 0.4044 | -1.38
323.15 K, x1 = 0.51 | -1.21
323.15 K, x1 = 0.6027 | -0.938
323.15 K, x1 = 0.7018 | -0.762
323.15 K, x1 = 0.7983 | -0.512

CN(C)CCCO [3-dimethylamino-1-propanol] + O
Conditions | excess molar enthalpy [kcal/mol]
303.15 K, x1 = 0.0505 | -0.252
303.15 K, x1 = 0.1027 | -0.436
303.15 K, x1 = 0.1998 | -0.601
303.15 K, x1 = 0.3003 | -0.683
303.15 K, x1 = 0.3515 | -0.689
303.15 K, x1 = 0.3975 | -0.69
303.15 K, x1 = 0.5019 | -0.647
303.15 K, x1 = 0.6483 | -0.502
303.15 K, x1 = 0.8001 | -0.301
303.15 K, x1 = 0.9452 | -0.0951
323.15 K, x1 = 0.0495 | -0.229
323.15 K, x1 = 0.1003 | -0.35
323.15 K, x1 = 0.1782 | -0.485
323.15 K, x1 = 0.3006 | -0.587
323.15 K, x1 = 0.3485 | -0.597
323.15 K, x1 = 0.3981 | -0.6
323.15 K, x1 = 0.4977 | -0.568
323.15 K, x1 = 0.6455 | -0.438
323.15 K, x1 = 0.7962 | -0.269
323.15 K, x1 = 0.9446 | -0.0743

OCCNCCO [diethanolamine] + O
298.15 K
Conditions | excess molar enthalpy [kcal/mol]
x1 = 0.05035 | -0.13
x1 = 0.1001 | -0.266
x1 = 0.1989 | -0.41
x1 = 0.2023 | -0.415
x1 = 0.2958 | -0.484
x1 = 0.3428 | -0.494
x1 = 0.3974 | -0.491
x1 = 0.4915 | -0.465
x1 = 0.599 | -0.38
x1 = 0.7038 | -0.304
x1 = 0.795 | -0.223
x1 = 0.9029 | -0.0989

CCN(CC)CCO [(diethylamino)ethanol] + O
Conditions | excess molar enthalpy [kcal/mol]
303.15 K, x1 = 0.0504 | -0.253
303.15 K, x1 = 0.1001 | -0.377
303.15 K, x1 = 0.2008 | -0.522
303.15 K, x1 = 0.301 | -0.607
303.15 K, x1 = 0.3688 | -0.62
303.15 K, x1 = 0.387 | -0.625
303.15 K, x1 = 0.4002 | -0.621
303.15 K, x1 = 0.4522 | -0.611
303.15 K, x1 = 0.5002 | -0.598
303.15 K, x1 = 0.5998 | -0.528
303.15 K, x1 = 0.7003 | -0.418
303.15 K, x1 = 0.8007 | -0.288
303.15 K, x1 = 0.901 | -0.144
323.15 K, x1 = 0.0502 | -0.192
323.15 K, x1 = 0.1009 | -0.296
323.15 K, x1 = 0.1951 | -0.407
323.15 K, x1 = 0.3002 | -0.482
323.15 K, x1 = 0.369 | -0.499
323.15 K, x1 = 0.4006 | -0.502
323.15 K, x1 = 0.5005 | -0.477
323.15 K, x1 = 0.6 | -0.422
323.15 K, x1 = 0.6191 | -0.386
323.15 K, x1 = 0.6997 | -0.341
323.15 K, x1 = 0.8005 | -0.252
323.15 K, x1 = 0.9006 | -0.12

OCCN(CCO)CCO [triethanolamine] + O
Conditions | excess molar enthalpy [kcal/mol]
303.15 K, x1 = 0.0473 | -0.128
303.15 K, x1 = 0.1013 | -0.222
303.15 K, x1 = 0.2063 | -0.308
303.15 K, x1 = 0.3064 | -0.334
303.15 K, x1 = 0.3548 | -0.335
303.15 K, x1 = 0.4076 | -0.327
303.15 K, x1 = 0.4902 | -0.292
303.15 K, x1 = 0.5783 | -0.267
303.15 K, x1 = 0.71 | -0.201
303.15 K, x1 = 0.7943 | -0.145
303.15 K, x1 = 0.8959 | -0.0758
323.15 K, x1 = 0.0487 | -0.119
323.15 K, x1 = 0.1001 | -0.207
323.15 K, x1 = 0.2028 | -0.288
323.15 K, x1 = 0.3033 | -0.317
323.15 K, x1 = 0.3502 | -0.322
323.15 K, x1 = 0.4 | -0.319
323.15 K, x1 = 0.5021 | -0.279
323.15 K, x1 = 0.6021 | -0.249
323.15 K, x1 = 0.6989 | -0.198
323.15 K, x1 = 0.8006 | -0.14
323.15 K, x1 = 0.9009 | -0.0679

NCCNCCO [N-(2-aminoethyl)ethanolamine] + O
303.15 K
Conditions | excess molar enthalpy [kcal/mol]
x1 = 0.1031 | -0.554
x1 = 0.202 | -0.863
x1 = 0.3019 | -0.963
x1 = 0.3567 | -0.995
x1 = 0.4023 | -0.957
x1 = 0.4991 | -0.88
x1 = 0.5997 | -0.74
x1 = 0.7027 | -0.579
